Data as given in publication PMC12510010 (The Journal of Biological Chemistry, 2025).

What was measured:
Format in all cases: cell-based
[1] = test system: MRP4 (cGMP efflux, T-84 cells); assay: Extracellular cGMP (ELISA), T-84 cells; conditions: STc (1 μM, 30 min) + MK571 (10 μM, 30 min), n = 6 to 8, three independent experiments
Method: (§1) Figure 4 GCC and MRP4 are functionally coupled in the intestinal epithelial cells. A, dot-blot analysis of GST-NHERF1-4 binding with the C-terminal 50 amino acids of MRP4 (MRP4C50) that contains the C-terminal PDZ-domain binding motif ETALCOOH. GST was used as a negative control. 2 and 20 ng of purified MRP4C50 were also immobilized on the nitrocellulose membrane as positive controls for detection. The detection of the protein interaction was performed using S-protein HRP Conjugate. B, the macromolecular complex formation assay between MRP4C50 and GCCC50via NHERF3. […] D, bar-graph represents the amount of cGMP measured using ELISA from total cell lysate and the supernatant (medium) from T-84 cells treated with ± STc (1 μM, 30 min) ± MK571 (10 μM, 30 min). n represents each data point with n = 6 to 8 obtained from three independent experiments. […] E, bar-graph represents the quantitation of fluid secretion in the mouse enteroids treated with ± STc (1 μM, 30 min) ± MK571 (10 μM, 30 min). Fluid secretion in the mouse enteroids calculated from n = 8 to 25 organoids per condition. […] F, bar-graph represents the quantitation of fluid secretion in the human enteroids treated with ± STc (1 μM, 30 min) ± MK571 (10 μM, 30 min). Fluid secretion in the human enteroids calculated from n = 12 to 17 organoids per condition. […]

[2] = test system: MRP4 (cGMP in T-84 cells); assay: Ratiometric FRET of live cGMP production with sensor cygnet 2.1; conditions: STc (100 nm) + MK571 (10 μM), vs STc alone, t test p = 0.0481
Method: as §1

[3] = test system: MRP4; fluid secretion in mouse enteroids; assay: STc-stimulated fluid secretion in mouse enteroids with MK571; conditions: STc (1 μM, 30 min), MK571 (10 μM, 30 min), n = 8 to 25 organoids
Method: as §1
(§2) Intestinal crypt isolation and quantitation of fluid secretion in enteroids […]

[4] = test system: MRP4; fluid secretion in human enteroids; assay: STc-stimulated fluid secretion in human enteroids with MK571; conditions: STc (1 μM, 30 min), MK571 (10 μM, 30 min), n = 12 to 17 organoids
Method: as §1, §2

SMILES: CN(C)C(=O)CCSC(SCCC(=O)O)c1cccc(/C=C/c2ccc3ccc(Cl)cc3n2)c1 (stereo not shown) [MK571]
- cGMP in the cell supernatant [1]: reduced cGMP concentrations (in the cell supernatant)
- cGMP accumulation (ratiometric FRET) [2]: synergistic accumulation of cGMP
- STc-stimulated fluid secretion with MK571 [3]: enhanced STc-stimulated fluid secretion
- STc-stimulated fluid secretion with MK571 [4]: enhanced STc-stimulated fluid secretion
